Experimental data as given in ChEMBL document CHEMBL3797164, “Transfer of SAR information from hypotensive indazole to indole derivatives acting at α-adrenergic receptors: In vitro and in vivo studies” (Eur J Med Chem, 2016).

Assays:
[1] = Displacement of [3H]2BFI from Imidazoline receptor 2 in Sprague-Dawley rat brain P2 membrans after […] by liquid scintillation counting
[2] = biological target: T1, Adrenergic receptor alpha-2 (Rattus norvegicus, UniProt P22086+P19328+P22909); test: Displacement of [3H]RX821002 from Alpha-2 adrenergic receptor in Sprague-Dawley rat brain P2 membranes after […] by liquid scintillation counting
T1 sequence (P22086 whole entry): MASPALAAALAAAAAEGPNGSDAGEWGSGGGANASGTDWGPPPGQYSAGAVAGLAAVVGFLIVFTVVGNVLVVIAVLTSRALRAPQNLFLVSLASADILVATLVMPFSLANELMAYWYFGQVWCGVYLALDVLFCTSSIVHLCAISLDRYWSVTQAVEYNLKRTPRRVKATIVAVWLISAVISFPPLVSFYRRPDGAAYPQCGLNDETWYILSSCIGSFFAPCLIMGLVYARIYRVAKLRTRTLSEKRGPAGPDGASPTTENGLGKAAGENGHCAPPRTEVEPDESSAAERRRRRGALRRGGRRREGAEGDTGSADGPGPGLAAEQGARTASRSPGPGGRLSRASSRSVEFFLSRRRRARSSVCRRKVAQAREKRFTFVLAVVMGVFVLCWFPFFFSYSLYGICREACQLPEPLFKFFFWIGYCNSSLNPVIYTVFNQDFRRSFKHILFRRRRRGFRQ
T1 sequence (P19328 whole entry): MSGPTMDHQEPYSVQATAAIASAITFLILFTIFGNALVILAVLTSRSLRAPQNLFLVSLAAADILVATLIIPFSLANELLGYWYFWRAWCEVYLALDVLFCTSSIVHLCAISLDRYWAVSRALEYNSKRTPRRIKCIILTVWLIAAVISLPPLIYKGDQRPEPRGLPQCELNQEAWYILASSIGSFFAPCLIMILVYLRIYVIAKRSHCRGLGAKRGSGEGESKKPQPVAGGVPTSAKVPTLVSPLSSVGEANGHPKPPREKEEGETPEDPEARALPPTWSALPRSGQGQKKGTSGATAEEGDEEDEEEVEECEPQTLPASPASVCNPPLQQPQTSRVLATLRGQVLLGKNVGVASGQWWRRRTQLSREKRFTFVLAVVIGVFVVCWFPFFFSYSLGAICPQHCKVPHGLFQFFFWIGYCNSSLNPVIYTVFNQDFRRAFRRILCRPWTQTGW
T1 sequence (P22909 whole entry): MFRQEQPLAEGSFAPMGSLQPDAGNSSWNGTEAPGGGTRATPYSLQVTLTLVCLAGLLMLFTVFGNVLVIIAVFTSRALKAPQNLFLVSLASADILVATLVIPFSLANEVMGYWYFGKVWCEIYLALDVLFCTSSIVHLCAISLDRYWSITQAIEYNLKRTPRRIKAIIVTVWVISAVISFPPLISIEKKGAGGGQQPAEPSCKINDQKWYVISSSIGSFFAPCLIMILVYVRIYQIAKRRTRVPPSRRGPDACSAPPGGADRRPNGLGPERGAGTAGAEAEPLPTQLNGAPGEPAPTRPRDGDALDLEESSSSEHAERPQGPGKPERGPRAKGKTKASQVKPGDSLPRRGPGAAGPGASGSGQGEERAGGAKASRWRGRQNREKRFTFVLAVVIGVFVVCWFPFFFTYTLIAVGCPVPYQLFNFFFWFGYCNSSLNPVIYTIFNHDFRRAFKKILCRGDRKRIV

[3] = biological target: T2, Adrenergic receptor alpha-1 (Rattus norvegicus, UniProt P15823+P23944+P43140); test: Displacement of [3H]prazosine from Alpha-1 adrenergic receptor in Sprague-Dawley rat brain P2 membranes after […] by liquid scintillation counting
T2 sequence (P15823 whole entry): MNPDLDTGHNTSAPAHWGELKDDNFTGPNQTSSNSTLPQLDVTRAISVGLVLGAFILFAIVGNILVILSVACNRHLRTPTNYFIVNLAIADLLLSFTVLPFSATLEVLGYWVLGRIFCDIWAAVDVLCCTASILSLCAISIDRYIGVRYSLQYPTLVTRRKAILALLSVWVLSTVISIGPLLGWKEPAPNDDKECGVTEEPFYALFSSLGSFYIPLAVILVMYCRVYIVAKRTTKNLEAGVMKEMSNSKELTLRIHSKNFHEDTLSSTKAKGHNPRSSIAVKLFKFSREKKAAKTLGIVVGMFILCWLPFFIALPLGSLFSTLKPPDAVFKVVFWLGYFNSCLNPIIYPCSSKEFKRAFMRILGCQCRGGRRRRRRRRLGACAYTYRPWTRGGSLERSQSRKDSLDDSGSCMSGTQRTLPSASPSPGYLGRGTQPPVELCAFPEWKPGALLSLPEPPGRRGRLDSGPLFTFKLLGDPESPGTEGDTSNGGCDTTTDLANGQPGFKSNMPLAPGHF
T2 sequence (P23944 whole entry): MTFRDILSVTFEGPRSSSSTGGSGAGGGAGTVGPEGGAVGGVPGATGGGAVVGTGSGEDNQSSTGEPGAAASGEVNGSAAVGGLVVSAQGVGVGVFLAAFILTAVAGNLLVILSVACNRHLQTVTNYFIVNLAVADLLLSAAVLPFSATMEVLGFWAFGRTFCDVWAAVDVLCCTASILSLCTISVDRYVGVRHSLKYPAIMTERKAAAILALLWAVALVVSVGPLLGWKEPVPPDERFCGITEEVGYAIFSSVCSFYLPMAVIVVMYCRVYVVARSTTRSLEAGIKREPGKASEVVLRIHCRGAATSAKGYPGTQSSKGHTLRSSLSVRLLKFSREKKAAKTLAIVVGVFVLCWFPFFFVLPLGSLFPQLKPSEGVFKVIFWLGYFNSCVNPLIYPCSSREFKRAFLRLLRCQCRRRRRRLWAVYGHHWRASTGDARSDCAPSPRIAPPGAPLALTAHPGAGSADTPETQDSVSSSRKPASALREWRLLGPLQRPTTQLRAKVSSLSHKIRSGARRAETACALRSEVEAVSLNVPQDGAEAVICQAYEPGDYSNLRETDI
T2 sequence (P43140 whole entry): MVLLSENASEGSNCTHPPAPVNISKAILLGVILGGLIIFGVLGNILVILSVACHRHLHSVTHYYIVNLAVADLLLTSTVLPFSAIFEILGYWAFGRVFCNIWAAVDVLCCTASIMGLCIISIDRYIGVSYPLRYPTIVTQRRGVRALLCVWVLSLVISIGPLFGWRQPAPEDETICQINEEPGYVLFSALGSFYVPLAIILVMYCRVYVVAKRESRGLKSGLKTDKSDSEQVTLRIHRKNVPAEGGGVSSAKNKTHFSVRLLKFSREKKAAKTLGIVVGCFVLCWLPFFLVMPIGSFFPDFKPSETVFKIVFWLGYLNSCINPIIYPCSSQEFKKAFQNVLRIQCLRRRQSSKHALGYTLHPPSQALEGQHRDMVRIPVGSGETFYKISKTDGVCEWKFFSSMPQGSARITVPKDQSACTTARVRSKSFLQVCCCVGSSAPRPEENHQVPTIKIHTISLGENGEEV

Nischarin = Nischarin (Rattus norvegicus, UniProt Q4G017); test: Displacement of [3H]clonidine from Imidazoline receptor 1 in Sprague-Dawley rat kidney P2 membranes after […] by liquid scintillation counting
Sequence of Nischarin (Q4G017 whole entry): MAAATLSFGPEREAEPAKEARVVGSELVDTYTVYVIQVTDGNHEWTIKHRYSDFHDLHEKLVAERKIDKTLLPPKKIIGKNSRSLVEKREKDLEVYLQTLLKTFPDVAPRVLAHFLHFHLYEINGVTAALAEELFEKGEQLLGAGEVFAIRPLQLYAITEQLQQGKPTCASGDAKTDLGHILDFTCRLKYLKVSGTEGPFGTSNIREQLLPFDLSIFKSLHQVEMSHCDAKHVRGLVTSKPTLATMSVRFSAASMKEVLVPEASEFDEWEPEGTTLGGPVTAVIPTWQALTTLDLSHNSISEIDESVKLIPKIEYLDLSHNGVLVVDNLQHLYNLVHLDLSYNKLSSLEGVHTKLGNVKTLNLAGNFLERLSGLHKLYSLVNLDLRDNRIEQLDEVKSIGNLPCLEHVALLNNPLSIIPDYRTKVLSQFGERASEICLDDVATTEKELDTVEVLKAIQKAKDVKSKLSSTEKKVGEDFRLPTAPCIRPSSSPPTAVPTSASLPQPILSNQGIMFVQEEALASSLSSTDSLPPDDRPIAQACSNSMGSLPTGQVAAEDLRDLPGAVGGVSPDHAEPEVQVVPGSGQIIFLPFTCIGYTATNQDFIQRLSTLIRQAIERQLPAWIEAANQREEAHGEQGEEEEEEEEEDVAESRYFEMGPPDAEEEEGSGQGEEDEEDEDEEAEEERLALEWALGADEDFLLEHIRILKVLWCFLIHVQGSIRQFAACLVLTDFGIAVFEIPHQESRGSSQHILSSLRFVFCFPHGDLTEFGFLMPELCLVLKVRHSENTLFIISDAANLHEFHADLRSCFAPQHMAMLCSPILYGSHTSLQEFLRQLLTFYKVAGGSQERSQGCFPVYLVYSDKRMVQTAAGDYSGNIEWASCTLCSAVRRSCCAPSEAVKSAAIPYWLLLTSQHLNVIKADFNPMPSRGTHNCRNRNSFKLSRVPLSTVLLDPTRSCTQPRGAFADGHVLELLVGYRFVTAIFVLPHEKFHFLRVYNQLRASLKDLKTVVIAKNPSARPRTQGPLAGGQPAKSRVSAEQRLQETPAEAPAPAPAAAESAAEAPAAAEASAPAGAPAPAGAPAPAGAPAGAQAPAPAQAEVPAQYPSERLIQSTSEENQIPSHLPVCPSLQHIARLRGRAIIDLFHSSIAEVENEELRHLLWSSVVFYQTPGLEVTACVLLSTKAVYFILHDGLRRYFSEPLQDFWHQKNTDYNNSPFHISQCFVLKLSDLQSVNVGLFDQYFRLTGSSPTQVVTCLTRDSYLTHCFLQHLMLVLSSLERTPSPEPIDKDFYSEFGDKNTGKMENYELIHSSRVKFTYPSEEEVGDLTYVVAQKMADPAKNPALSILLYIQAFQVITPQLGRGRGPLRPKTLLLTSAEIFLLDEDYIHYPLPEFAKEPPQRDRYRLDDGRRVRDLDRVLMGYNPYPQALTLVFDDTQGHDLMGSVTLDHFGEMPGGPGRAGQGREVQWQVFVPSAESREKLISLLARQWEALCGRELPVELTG

For `Brc1cccc2c1ccn2CC1=NCCN1.Cl`, the Ki [1] was 0.179 µM, the Ki [2] was 0.0844 µM and the Ki [3] was 0.2577 µM. The Ki (Nischarin) was 0.468 µM.
`Cl.Fc1ccc2c(ccn2CC2=NCCN2)c1` showed a Ki [1] of 0.0663 µM, a Ki [2] of 0.06843 µM and a Ki [3] of 0.3067 µM. The Ki (Nischarin) was 0.0321 µM.
Compound `Cl.Fc1cccc2ccn(CC3=NCCN3)c12` has a Ki [1] of 0.0321 µM, a Ki [2] of 0.01657 µM and a Ki [3] of 0.0367 µM. For the same compound, the Ki (Nischarin) was 9.63 µM.
In the case of `Br.c1ccc(COc2cccc3ccn(CC4=NCCN4)c23)cc1`, the Ki [1] is reported as 10.4 µM, the Ki [2] is reported as 5.241 µM and the Ki [3] is reported as 0.3818 µM. The Ki (Nischarin) was 36.3 µM.
`CCc1cccc2ccn(CC3=NCCN3)c12.Cl` showed a Ki [1] of 0.88 µM, a Ki [2] of 0.0717 µM and a Ki [3] of 0.4394 µM. The Ki (Nischarin) was 45.8 µM.
`Brc1ccc2c(ccn2CC2=NCCN2)c1.Cl` gave a Ki [1] of 0.0303 µM, a Ki [2] of 0.5967 µM and a Ki [3] of 1.348 µM. It also gave a Ki (Nischarin) of 10.5 µM.
Work on `Brc1cccc2ccn(CC3=NCCN3)c12.Cl` yielded a Ki [1] of 0.254 µM, a Ki [2] of 0.0183 µM and a Ki [3] of 0.00791 µM. It also gave a Ki (Nischarin) of 0.0792 µM.
`Cl.Fc1cccc2c1ccn2CC1=NCCN1` gave a Ki [1] of 0.249 µM, a Ki [2] of 0.04697 µM and a Ki [3] of 0.02756 µM. It also gave a Ki (Nischarin) of 14.6 µM.
In the case of `Br.COc1cccc2ccn(CC3=NCCN3)c12`, the Ki [1] is reported as 2.47 µM, the Ki [2] is reported as 0.28 µM and the Ki [3] is reported as 0.3942 µM. It also gave a Ki (Nischarin) of 588 µM.
Compound `Cl.Fc1ccc2ccn(CC3=NCCN3)c2c1` has a Ki [1] of 0.24 µM, a Ki [2] of 0.0159 µM and a Ki [3] of 0.08783 µM. For the same compound, the Ki (Nischarin) was 0.789 µM.
Work on `Cl.Clc1ccc2ccn(CC3=NCCN3)c2c1` yielded a Ki [1] of 0.0485 µM, a Ki [2] of 0.0945 µM and a Ki [3] of 0.2287 µM. The Ki (Nischarin) was 5.58 µM.
